# Assay results published in patent publication US6251950A, “Aliphatic propargylamines as cellular rescue agents” (University of Saskatchewan, priority 1998, dated 2001).
# Counter-ions that a name gives are not always drawn.
# System: cerebellar granule cells (CGC)
# Experiment: in vitro
# Type: cell-based, Wistar rat
# Conditions: 10^-7 M (FIG. 1c)
# From the text: Cultures of cerebellar granule cells (CGC) can be induced into apoptosis by the addition of a high concentration of cytosine arabinoside (Ara C) (Dessi et al., 1995) and it has been shown that this is a p53 dependent apoptosis (Enokido et al, 1996). We have measured the antiapoptotic effect of N-(2-heptyl)propargylamine (2HPA) using this system and compared the results to those obtained with previously known aliphatic methyl propargylamines and deprenyl.
# Cultures of CGC were obtained from 6-8 day old Wistar rat pups. Cultures were grown on glass in 35 mm petri dishes for 3 days and then used for experiments. 20 μl aliquots of drug solutions (Ara C, anti-apoptotic drugs, drug vehicles) were added to the medium of the cultures. 24 Hours later the cultures were fixed with FAM, and stained with bis-benzamide. Normal and apoptotic nuclei were counted to a total of 90-120 cells per culture. […] Concentrations in excess of 150 μM caused detachment of the cultures.
# Compounds were added at the following concentrations: Ara C, 100 μM,
row,Compound,blocking of Ara C induced apoptosis
1,"C#CCN(C)[C@H](C)CCCCC [Example R-2HMP, (R)-N-(2-heptyl)-N-methyl-propargylamine]",completely blocked
2,"C#CCN(C)[C@@H](C)CCCCC [Example S-2HMP, (S)-N-(2-heptyl)-N-methyl-propargylamine]",did not
3,C#CCN(C)[C@@H](C)Cc1ccccc1 [S-deprenyl],did not

# Same assay, conditions: Rattus norvegicus; inhibition of Ara C induced apoptosis (FIG. 1a, 1b)
row,Compound,EC50 [nM]
1,"C#CCN(C)[C@H](C)CCCCC [Example R-2HMP, (R)-N-(2-heptyl)-N-methyl-propargylamine]",1 to 100

# Same assay, conditions: antagonism; Ara C 100 μM + R-2HMP 100 nM + S-enantiomer 10 μM; mean ± sem of 4 cultures; #P < 0.05 compared to Ara C + R-2HMP
row,Compound,Percent Apoptotic Nuclei (Ara C + R-2HMP + compound) [%]
1,"C#CCN(C)[C@@H](C)CCCCC [Example S-2HMP, (S)-N-(2-heptyl)-N-methyl-propargylamine]",15.1 ± 0.9
2,"C#CCN[C@@H](C)CCCCC [Example S-2HPA, (S)-N-(2-heptyl)-propargylamine]",13.8 ± 1.2

# Same assay, conditions: in words
Compound,antagonism of the anti-apoptotic action of the R-enantiomers,anti-apoptotic effect
"C#CCN(C)[C@@H](C)CCCCC [Example S-2HMP, (S)-N-(2-heptyl)-N-methyl-propargylamine]",antagonists of the anti-apoptotic action of the R-enantiomers,–
"C#CCN[C@@H](C)CCCCC [Example S-2HPA, (S)-N-(2-heptyl)-propargylamine]",antagonists of the anti-apoptotic action of the R-enantiomers,does not have an anti-apoptotic effect

# Same assay, conditions: no Ara C; R-2HMP 100 nM, S-2HMP 10 μM, S-2HPA 10 μM; mean ± sem of 4 cultures; control 4.2 ± 0.3
row,Compound,Percent Apoptotic Nuclei (Control + compound) [%]
1,"C#CCN(C)[C@H](C)CCCCC [Example R-2HMP, (R)-N-(2-heptyl)-N-methyl-propargylamine]",4.8 ± 0.7
2,"C#CCN(C)[C@@H](C)CCCCC [Example S-2HMP, (S)-N-(2-heptyl)-N-methyl-propargylamine]",5.0 ± 0.6
3,"C#CCN[C@@H](C)CCCCC [Example S-2HPA, (S)-N-(2-heptyl)-propargylamine]",4.7 ± 0.7

# Same assay, conditions: with Ara C 100 μM; R-2HMP 100 nM, S-2HMP 10 μM, S-2HPA 10 μM; mean ± sem of 4 cultures; *P < 0.05 compared to Ara C alone
row,Compound,Percent Apoptotic Nuclei (Ara C + compound) [%]
1,"C#CCN(C)[C@H](C)CCCCC [Example R-2HMP, (R)-N-(2-heptyl)-N-methyl-propargylamine]",6.3 ± 0.8
2,"C#CCN(C)[C@@H](C)CCCCC [Example S-2HMP, (S)-N-(2-heptyl)-N-methyl-propargylamine]",13.7 ± 1.1
3,"C#CCN[C@@H](C)CCCCC [Example S-2HPA, (S)-N-(2-heptyl)-propargylamine]",14.2 ± 0.9

# System: pyramidal neurons in the hippocampus (CA1 neurons)
# Experiment: Hypoxia/ischaemia model, CA1 neuron survival
# Type: in vivo, rat
# Conditions: 0.1 μmol/kg, s.c.; vehicle = 100%; ± sem (n = 6-10); **P < 0.01
# From the text: This model produces selective, unilateral lesioning of the pyramidal neurons in the hippocampus which involves neuronal apoptosis.
# Values are the mean survival of CA1 neurons expressed as a percentage of
# vehicle treated controls (vehicle = 100%) ± sem (n = 6 - 10).
row,Compound,"mean survival of CA1 neurons, percentage of vehicle treated controls (Table 2) [%]"
1,"CCCCC[C@@H](C)N [Example R-2HA, (R)-(2-heptyl)amine]",90 ± 30
2,"CCCCC[C@@H](C)NC [Example R-2HMA, (R)-N-(2-heptyl)-methylamine]",85 ± 26
3,"C#CCN(C)[C@H](C)CCCCC [Example R-2HMP, (R)-N-(2-heptyl)-N-methyl-propargylamine]",239 ± 35
4,"C#CCN(C)[C@@H](C)CCCCC [Example S-2HMP, (S)-N-(2-heptyl)-N-methyl-propargylamine]",112 ± 23
5,"C#CCN[C@@H](C)CCCCC [Example S-2HPA, (S)-N-(2-heptyl)-propargylamine]",131 ± 19

# Same assay, conditions: Rattus norvegicus, Neuron, sc, read-out: Percentage survival of CA1 neurones, of vehicle treated controls (Table 4)
row,Compound,response vs control in vivo at 0.1 µmol/kg [%]
1,"C#CCN(C)C [DMP, N,N-dimethylpropargylamine]",117 ± 28
2,"C#CCN(C)[C@H](C)CC [Example R-2BuMP, (R)-N-(2-butyl)-N-methylpropargylamine]",297 ± 52
3,"C#CCN(C)[C@@H](C)CC [Example S-2BuMP, (S)-N-(2-butyl)-N-methylpropargylamine]",139 ± 38
4,"C#CCNC [MPA, N-methylpropargylamine]",78 ± 31

# Same assay, conditions: Rattus norvegicus, Neuron, sc; 0.1 μmol/kg, s.c.; vehicle = 100%; ± sem (n = 6-10); *P < 0.05, **P < 0.01; read-out: Percentage survival of CA1 neurones, of vehicle treated controls (Table 4)
row,Compound,response vs control in vivo at 0.1 µmol/kg [%]
1,"C#CCN(C)CC [EMP, N-ethyl-N-methylpropargylamine]",82 ± 19
2,"C#CCNCC [EPA, N-ethylpropargylamine]",164 ± 18
3,"C#CCN(C)CCCCCC [Example 1HxMP, N-(1-hexyl)-N-methylpropargylamine]",215 ± 24
4,"C#CCNCCCCCC [Example 1HxPA, N-1-Hexylpropargylamine hydrochloride]",179 ± 23
5,"C#CCN(C)[C@H](C)CCCCC [Example R-2HMP, (R)-N-(2-heptyl)-N-methyl-propargylamine]",239 ± 35
6,"C#CCN(C)[C@@H](C)CCCCC [Example S-2HMP, (S)-N-(2-heptyl)-N-methyl-propargylamine]",112 ± 23
7,"C#CCN[C@@H](C)CCCCC [Example S-2HPA, (S)-N-(2-heptyl)-propargylamine]",131 ± 19

# Same assay, conditions: Rattus norvegicus, Neuron, sc; subcutaneous administration
row,Compound,ED50 [µmol/kg]
1,"C#CCN(C)[C@H](C)CCCCC [Example R-2HMP, (R)-N-(2-heptyl)-N-methyl-propargylamine]",0.001 to 0.01

# Same assay, conditions: s.c.
row,Compound,activity in the hypoxia/ischaemia model
1,"CCCCC[C@@H](C)N [Example R-2HA, (R)-(2-heptyl)amine]",neither increase nor decrease the CA1 neuronal death
2,"CCCCC[C@@H](C)NC [Example R-2HMA, (R)-N-(2-heptyl)-methylamine]",neither increase nor decrease the CA1 neuronal death
3,"C#CCN(C)[C@H](C)CCCCC [Example R-2HMP, (R)-N-(2-heptyl)-N-methyl-propargylamine]",shows significant activity

# Biological target: T1, rat liver mitochondrial monoamine oxidase B (Rattus norvegicus, UniProt P19643)
# T1 sequence (P19643 1-520): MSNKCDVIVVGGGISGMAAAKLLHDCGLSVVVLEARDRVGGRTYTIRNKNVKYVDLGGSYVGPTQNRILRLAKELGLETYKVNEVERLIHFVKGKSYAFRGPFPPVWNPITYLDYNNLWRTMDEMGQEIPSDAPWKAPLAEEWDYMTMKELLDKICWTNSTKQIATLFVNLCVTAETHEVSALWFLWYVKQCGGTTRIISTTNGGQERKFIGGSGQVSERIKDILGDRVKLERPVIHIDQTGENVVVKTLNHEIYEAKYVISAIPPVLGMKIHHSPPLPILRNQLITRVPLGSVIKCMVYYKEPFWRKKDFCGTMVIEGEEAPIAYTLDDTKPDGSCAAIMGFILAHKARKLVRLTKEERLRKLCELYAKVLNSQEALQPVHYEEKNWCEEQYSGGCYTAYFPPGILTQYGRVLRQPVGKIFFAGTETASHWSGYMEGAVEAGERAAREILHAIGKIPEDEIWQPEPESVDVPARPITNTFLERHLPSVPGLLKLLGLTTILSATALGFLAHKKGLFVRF
# Experiment: biochemical
# Type: biochemical
# Conditions: in vitro, relative to most effective inhibitor in group
# Method: Enzyme activity was assessed using a radiometric method as previously described (Yu et al, 1992).
row,Compound,Comparison to most effective MAO-B inhibitor in group [%]
1,"C#CCN(C)[C@H](C)CCCCC [Example R-2HMP, (R)-N-(2-heptyl)-N-methyl-propargylamine]",100
2,"C#CCN(C)[C@@H](C)CCCCC [Example S-2HMP, (S)-N-(2-heptyl)-N-methyl-propargylamine]",0.8
3,"C#CCN[C@@H](C)CCCCC [Example S-2HPA, (S)-N-(2-heptyl)-propargylamine]",0.1

# Same assay, conditions: substrate PE (β-phenylethylamine) 1.9 × 10^-5 M; average of at least 2 independent triplicate experiments
row,Compound,IC50 [nM]
1,"C#CCN(C)[C@H](C)CCCCC [Example R-2HMP, (R)-N-(2-heptyl)-N-methyl-propargylamine]",30
2,"C#CCN(C)[C@@H](C)CCCCC [Example S-2HMP, (S)-N-(2-heptyl)-N-methyl-propargylamine]",4000
3,"C#CCN[C@@H](C)CCCCC [Example S-2HPA, (S)-N-(2-heptyl)-propargylamine]",30000

# Biological target: T2, mouse brain MAO-B (Mus musculus, UniProt Q8BW75)
# T2 construct: Striata were dissected from the brain two hours after i.p. administration of the drugs; from tissue; host or cells: mouse brain striata, dissected two hours after i.p. dosing
# T2 sequence (Q8BW75 1-520): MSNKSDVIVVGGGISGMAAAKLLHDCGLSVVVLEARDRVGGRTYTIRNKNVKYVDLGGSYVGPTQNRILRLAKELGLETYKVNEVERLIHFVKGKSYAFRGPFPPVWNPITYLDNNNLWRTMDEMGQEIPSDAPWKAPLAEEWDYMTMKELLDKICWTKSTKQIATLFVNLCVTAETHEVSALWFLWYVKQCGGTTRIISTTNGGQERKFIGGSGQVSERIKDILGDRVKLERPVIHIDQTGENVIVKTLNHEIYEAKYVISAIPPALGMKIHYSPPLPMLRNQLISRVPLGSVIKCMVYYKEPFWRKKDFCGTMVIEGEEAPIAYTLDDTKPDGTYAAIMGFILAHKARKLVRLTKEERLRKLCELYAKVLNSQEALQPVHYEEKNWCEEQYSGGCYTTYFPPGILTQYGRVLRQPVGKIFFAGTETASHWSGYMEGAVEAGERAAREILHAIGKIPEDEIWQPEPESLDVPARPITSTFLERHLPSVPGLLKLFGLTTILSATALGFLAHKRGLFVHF
# Experiment: Inhibition in vivo of brain MAO-B activity after intraperitoneal administration
# Conditions: in vivo, i.p., relative to R-2HMP
# Method: Results are the average of two independent triplicate experiments for each i.p. dose. The doses were 0.5, 1, 2, 5, 10, 20 mg/Kg. Striata were dissected from the brain two hours after i.p. administration of the drugs. MAO-B activities were then determined immediately (Yu et al 1992). The values were estimated from dose-response curves.
row,Compound,Comparison to most effective inhibitor [%]
1,"C#CCN(C)[C@H](C)CCCCC [Example R-2HMP, (R)-N-(2-heptyl)-N-methyl-propargylamine]",100

# Same assay, conditions: mouse brain MAO-B, i.p.; fold more potent than R-deprenyl
row,Compound,potency relative to R-deprenyl [fold]
1,"C#CCN(C)[C@H](C)CCCCC [Example R-2HMP, (R)-N-(2-heptyl)-N-methyl-propargylamine]",2.5

# Same assay, conditions: mouse, ip, 2 h; PE 1.9 × 10^-5 M; i.p.; striata two hours after administration; estimated from dose-response curves; read-out: IC50 (mg/Kg) (MAO-B, in vivo)
row,Compound,ED50 [mg/kg]
1,"C#CCN(C)[C@H](C)CCCCC [Example R-2HMP, (R)-N-(2-heptyl)-N-methyl-propargylamine]",0.2
